Publication PMC6015065, “Linear Cyclodextrin Polymer Prodrugs as Novel Therapeutics for Niemann-Pick Type C1 Disorder” (Scientific Reports, 2018)
Read-outs that look alike come from different tables or passages of the source.

Assays:
[1] = Pharmacokinetics after single intravenous dose (100 mg/kg); type: in vivo, BALB/c mice; details: BALB/c, mouse
Experimental: (§1) LC/MS/MS (HPβCD) and HPLC-UV (ORX-301) were used for analysis in the studies. The bioanalytical method for HPβCD was linear, accurate, and precise in the concentration range of 5.4 and 500 µg/ml, with an LLOQ = 5.4 µg/ml, and met all the acceptance criteria.
(§2) Pharmacokinetic analysis and MTD studies were carried out in BALB/c mice purchased from Taconic Biosciences. Protocols and procedures of these studies were approved by the Institutional Animal Ethics Committee based on CPCSEA (India) guidelines.
(§3) Plasma was harvested and stored at −80 °C.

[2] = test system: Npc1^nmf164 mice; assay: Early intervention efficacy study (treatment from 2 weeks of age); type: in vivo; details: for Mean bodyweight: Npc1^nmf164 mice, 800 mg/kg SC weekly
Experimental: Control group mice received plain PBS (sham, group).
The body weight was recorded weekly and a score ranging from 0 to 5 was assigned to each mouse (Table 3) as previously performed. The motor co-ordination phenotype was assessed by the balance beam test every two weeks as previously described. Briefly, the mouse was placed perpendicularly at the center of a horizontal round beam (covered with paper tape, outer diameter 2 cm, length 1 m, divided into 10 sections and placed 50 cm above a padded surface) and the number of beam sections crossed in a 180 s time interval was recorded. Although the test relies on muscle strength and limb tone, it is well validated for the assessment of fine motor coordination and balance. […] The end-point of data collection was established as mouse weight approaching 13 g[40].

[3] = in vivo; details: BALB/c, mouse, sc, 500 mg/kg; for AUC(0-t): AUClast; for Kp: Tissue/Plasma Ratio
Experimental: The vehicle used for dissolution of test compounds was 0.9% Normal Saline. […] The formulations were prepared on the day of the study. The test compounds were administered at 100 mg/kg for the IV study and 500 mg/kg for the SC study. For the tissue distribution study, again 500 mg/kg was administered by the SC route.
Post dose, blood, or the relevant tissue in the case of the distribution study was collected at time points of 2 min, 5 min, 15 min, 30 min, 1 h, 2 h, 4 h, 24 h, 36 h and 48 h. From each mouse terminal blood samples were collected by cardiac puncture under isoflurane anaesthesia. The blood was collected in 2 ml Eppendorf tubes containing 0.020 ml of 10% K2EDTA, mixed gently and placed in ice before centrifugation. Plasma was harvested and stored at −80 °C. […] The PK analysis was performed using Non-compartmental methods in Phoenix WinNonlin 6.4 [Pharsight, Certara]. The mean concentration-time data were used for computing the PK parameters. The AUC was computed using the linear up-log down method. The following NCA parameters were estimated for the IV PK: Systemic Clearance [CL], Vss [Volume of distribution at steady state], first order elimination rate constant [ke], terminal half-life [t1/2], AUC0-t, AUC0-∞. For the SC PK study: Cmax, tmax, ke, t1/2, AUC0-t, AUC0-∞ and the absolute SC bioavailability [F] was estimated using the equation: F(%)=(AUCsc/AUCiv)∗(Doseiv/Dosesc)∗100

[4] = test system: Calbindin in Purkinje cells of Npc1^nmf164 mice; assay: Calbindin detection by immunofluorescence on cerebellar sections; type: in vivo; details: 10 weeks-old Npc1^nmf164 mice, 800 mg/kg SC weekly from 2 weeks
Experimental: Sham-treated control mice were injected with plain PBS.
Brains were quickly dissected, fixed overnight at 4 °C in 4% PFA and processed as previously described[52]. Briefly, fixed brains were dehydrated by incubation in 15–30% sucrose in PBS, embedded in FSC 22 Clear Frozen Section Compound (Leica Biosystems, Milano, Italy) and serially sectioned (slice thickness 10 µm) using a cryostat (Leica CM 1900). Sagittal sections were mounted on X-tra Adhesive glass slides (Leica biosystems). Sections were processed for immunofluorescence using a mouse monoclonal Calbindin antibody (Anti-Calbindin D28K, Sigma, Milan, Italy; 1:500 dilution in PBS) as routinely performed in our lab. A permeabilization step performed by incubating sections in 0.1% Triton X-100 in PBS for 10 min was followed by a 3 h incubation in a blocking solution containing 5% goat serum, 1% BSA, 0.2% Triton X-100 in PBS. Sections were then incubated over night with a 1:500 primary antibody dilution in PBS and, after several washes with PBS, with a TRITC-conjugated anti-mouse secondary antibody (Zymed-Thermo Fisher Scientific, Milan, Italy).

[5] = test system: Npc1^nih/nih mice; details: cited from earlier work
[6] = Pharmacokinetics after single subcutaneous dose (500 mg/kg); type: in vivo, BALB/c mice; details: BALB/c, mouse, plasma
Experimental: as §1, §2, §3

[7] = cited from earlier work
[8] = test system: Npc1^nmf164 mice; parameters: method as in PMID 26888431; details: HPβCD full dose 4000 mg/kg; cited from earlier work
[9] = 800 mg/kg SC weekly from 2 weeks of age

## CC(O)COC[C@H]1O[C@@H]2O[C@H]3[C@H](O)[C@@H](O)[C@@H](O[C@H]4[C@H](O)[C@@H](O)[C@@H](O[C@H]5[C@H](O)[C@@H](O)[C@@H](O[C@H]6[C@H](O)[C@@H](O)[C@@H](O[C@H]7[C@H](O)[C@@H](O)[C@@H](O[C@H]8[C@H](O)[C@@H](O)[C@@H](O[C@H]1[C@H](O)[C@H]2O)O[C@@H]8COCC(C)O)O[C@@H]7COCC(C)O)O[C@@H]6COCC(C)O)O[C@@H]5COCC(C)O)O[C@@H]4COCC(C)O)O[C@@H]3COCC(C)O (stereo partly drawn) [HPβCD, 2-hydroxypropyl-β-cyclodextrin]
[1]; in vivo, iv, 100 mg/kg
  concentration at 24 h: 4.95 µg/mL
  tlast: 24 h
[1]; plasma, 500 mg/kg, printed under the Intravenous columns, read-out: Absolute Bioavailability
  bioavailability: 42%
[1]; plasma, iv, 100 mg/kg, intravenous 100 mg/kg
  half-life: ~14 h
[1]; plasma, single IV dose 100 mg/kg
  clearance: 0.051 L/h/kg
[1]; plasma, single IV dose 100 mg/kg, read-out: Vss
  Vd: 0.18 L/kg
[1]; intravenous 100 mg/kg, plasma
  AUC(0-inf): 1960 µg·h/mL
  AUC(0-t): 1860 µg·h/mL
  Tmax: 4.98 min
[2]; [9]
  body weight loss progression: less severe and slower progressing weight loss
  improvement of performance in the balance beam test: only temporarily observed up to 9-weeks of age
  mean lifespan: 150 ± 2.55 days
[2]; 800 mg/kg SC weekly from 2 weeks of age, vs sham-treated
  improvement in mean survival: 35%
[2]; post-natal week 2
  Mean bodyweight: 7.43 ± 0.30 g
[2]; post-natal week 3
  Mean bodyweight: 10.37 ± 0.33 g
[2]; post-natal week 4
  Mean bodyweight: 13.31 ± 0.53 g
[2]; post-natal week 5
  Mean bodyweight: 17.24 ± 0.65 g
[2]; post-natal week 6
  Mean bodyweight: 18.58 ± 0.75 g
[2]; post-natal week 7
  Mean bodyweight: 20.25 ± 0.84 g
[2]; post-natal week 8
  Mean bodyweight: 20.85 ± 0.94 g
[2]; post-natal week 9
  Mean bodyweight: 20.55 ± 1.03 g
[2]; post-natal week 10
  Mean bodyweight: 19.92 ± 0.81 g
[3]; kidney
  AUC(0-t): 2950 µg·h/mL
  Kp: 0.63
[3]; liver
  AUC(0-t): 127 µg·h/mL
  Kp: 0.03
[3]; spleen
  AUC(0-t): 828 µg·h/mL
  Kp: 0.18
[4]
  Calbindin staining of Purkinje cells: markedly reduced Calbindin staining
[5]; single injection at day 49, Npc1^nih/nih mice
  effect on lifespan: did not significantly improve the lifespan
[5]; weekly injections started at day 42, Npc1^nih/nih mice
  dosage required for improvement of survival: at least 1000 mg/kg
[6]; subcutaneous 500 mg/kg vs intravenous 100 mg/kg, read-out: Absolute Bioavailability
  bioavailability: 42%
[6]; sc, subcutaneous 500 mg/kg
  AUC(0-inf): 4140 µg·h/mL
  AUC(0-t): 4020 µg·h/mL
  Cmax: 4610 µg/mL
  Tmax: 4.98 min
  half-life: 16.7 h
[7]; ref 25, 53
  fraction that reaches the brain upon systemic administration: 0.2–1.5%
[7]; ref 25
  fraction that reaches the brain upon systemic administration: less than 0.2%
[8]
  mean lifespan: 170 to 180 days
